# Laboratory results as given in patent publication US8030500B2, “Substituted isoindoles for the treatment and/or prevention of Aβ- related pathologies” (AstraZeneca AB, priority 2008, dated 2011).
# Biological target: T1, human β-Secretase (Homo sapiens, UniProt P56817)
# T1 construct: soluble part of the human β-Secretase (AA 1-AA 460); Fc domain of IgG1; made in house
# Test: TR-FRET assay (β-secretase enzyme, sBACE-Fc)
# Format: biochemical
# Conditions: soluble human β-secretase (sBACE-Fc), substrate (Europium)[…](Qsy7) 100 nM, pH4.5; read-out: IC50 in TR-FRET assay
# Description: The β-secretase enzyme used in the TR-FRET is prepared as follows:
# The cDNA for the soluble part of the human β-Secretase (AA 1-AA 460) was cloned using the ASP2-Fc10-1-IRES-GFP-neoK mammalian expression vector. The gene was fused to the Fc domain of IgG1 (affinity tag) and stably cloned into HEK 293 cells.
# The robotic systems Biomek FX and Velocity 11 were used for all liquid handling and the enzyme and substrate solutions were kept on ice until they were placed in the robotic system. Enzyme (9 μl) was added to the plate then 1 μl of compound in dimethylsulphoxide was added, mixed and pre-incubated for 10 minutes. Substrate (10 μl) was then added, mixed and the reaction proceeded for 15 minutes at room temperature. The reaction was stopped with the addition of Stop solution (7 μl, NaAcetate, pH 9). […] The dimethylsulphoxide control, instead of test compound, defined the 100% activity level and 0% activity was defined by wells lacking enzyme (replaced with reaction buffer).
# T1 sequence (P56817 22-460): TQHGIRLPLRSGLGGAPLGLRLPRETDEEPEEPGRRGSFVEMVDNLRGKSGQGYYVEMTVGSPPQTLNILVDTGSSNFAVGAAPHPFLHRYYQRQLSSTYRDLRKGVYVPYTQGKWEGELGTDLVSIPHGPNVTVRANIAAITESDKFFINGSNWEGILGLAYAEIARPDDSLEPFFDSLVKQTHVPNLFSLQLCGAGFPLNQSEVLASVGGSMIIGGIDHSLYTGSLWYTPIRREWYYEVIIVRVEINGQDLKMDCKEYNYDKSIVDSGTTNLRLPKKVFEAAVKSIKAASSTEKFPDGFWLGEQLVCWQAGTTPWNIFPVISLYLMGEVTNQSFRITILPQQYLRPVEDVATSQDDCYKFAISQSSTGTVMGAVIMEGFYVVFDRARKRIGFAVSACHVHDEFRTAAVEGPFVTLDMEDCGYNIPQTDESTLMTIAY
row,Structure (SMILES),IC50 [nM]
1,"COc1cc(C2(c3cccc(-c4cc(C#N)ccn4)c3)N=C(N)c3c(F)cccc32)ccn1 (stereo not shown) [Example 39, 2-(3-(3-Amino-4-fluoro-1-(2-methoxypyridin-4-yl)-1H-isoindol-1-yl)phenyl)isonicotinonitrile]",1100
2,"NC1=NC(c2ccnc(-c3cncnc3)c2)(c2ccnc(C(F)F)c2)c2cccc(F)c21 (stereo not shown) [Example 42, 1-(2-(Difluoromethyl)pyridin-4-yl)-4-fluoro-1-(2-(pyrimidin-5-yl)pyridin-4-yl)-1H-isoindol-3-amine]",310
3,"COc1ccc(C2(c3cccc(-c4cncnc4)c3)N=C(N)c3c(F)cccc32)cc1C#N (stereo not shown) [Example 43, 5-(3-Amino-4-fluoro-1-(3-(pyrimidin-5-yl)phenyl)-1H-isoindol-1-yl)-2-methoxybenzonitrile]",560
4,"COc1c(C)cc(C2(c3cccc(-c4cncnc4)c3)N=C(N)c3c(F)cccc32)nc1C (stereo not shown) [Example 44, 4-Fluoro-1-(5-methoxy-4,6-dimethylpyridin-2-yl)-1-(3-(pyrimidin-5-yl)phenyl)-1H-isoindol-3-amine]",79
5,"Cc1cc(C2(c3cccc(-c4cncnc4)c3)N=C(N)c3c(F)cccc32)nc(C)n1 (stereo not shown) [Example 45, 1-(2,6-Dimethylpyrimidin-4-yl)-4-fluoro-1-(3-(pyrimidin-5-yl)phenyl)-1H-isoindol-3-amine]",270
6,"COc1cc(C2(c3cccc(-c4cncnc4)c3)N=C(N)c3c(F)cccc32)cc(F)c1F (stereo not shown) [Example 46, 1-(3,4-Difluoro-5-methoxyphenyl)-4-fluoro-1-(3-(pyrimidin-5-yl)phenyl)-1H-isoindol-3-amine]",690
7,"COc1c(C)cc(C2(c3cccc(-c4cncnc4)c3)N=C(N)c3c(F)cccc32)cc1CC#N (stereo not shown) [Example 47, 2-(5-(3-Amino-4-fluoro-1-(3-(pyrimidin-5-yl)phenyl)-1H-isoindol-1-yl)-2-methoxy-3-methylphenyl) acetonitrile]",83
8,"COc1cc(C2(c3cccc(-c4cncnc4)c3)N=C(N)c3c(F)cccc32)ccc1F (stereo not shown) [Example 48, 4-Fluoro-1-(4-fluoro-3-methoxyphenyl)-1-(3-(pyrimidin-5-yl)phenyl)-1H-isoindol-3-amine]",350

# Now from value to molecule:
row,IC50 [nM],Structure (SMILES)
1,600,"COc1ncc(C2(c3cccc(-c4cncnc4)c3)N=C(N)c3c(F)cccc32)cc1C(F)(F)F (stereo not shown) [Example 49, 4-Fluoro-1-(6-methoxy-5-(trifluoromethyl)pyridin-3-yl)-1-(3-(pyrimidin-5-yl)phenyl)-1 H-isoindol-3-amine]"
2,420,"NC1=NC(c2ccnc(C(F)(F)F)c2)(c2ccc(O)c(-c3cnccn3)c2)c2cccc(F)c21 (stereo not shown) [Example 50, 4-(3-Amino-4-fluoro-1-(2-(trifluoromethyl)pyridin-4-yl)-1H-isoindol-1-yl)-2-(pyrazin-2-yl)phenol]"
3,5600,"COc1ccc(C2(c3ccnc(C(F)(F)F)c3)N=C(N)c3c(F)cccc32)cc1-c1cncnc1 (stereo not shown) [Example 51, 4-Fluoro-1-(4-methoxy-3-(pyrimidin-5-yl)phenyl)-1-(2-(trifluoromethyl)pyridin-4-yl)-1H-isoindol-3-amine]"
4,690,"NC1=NC(c2ccnc(-c3cncnc3)c2)(c2ccnc(C3CC3)c2)c2cccc(F)c21 (stereo not shown) [Example 52, 1-(2-Cyclopropylpyridin-4-yl)-4-fluoro-1-(2-(pyrimidin-5-yl)pyridin-4-yl)-1H-isoindol-3-amine]"
5,910,"Cc1cc(C2(c3ccnc(-c4cncc(F)c4)c3)N=C(N)c3c(F)cccc32)nc(C)c1OC(F)F (stereo not shown) [Example 53, 3-(5-Difluoromethoxy-4,6-dimethyl-pyridin-2-yl)-7-fluoro-3-(5′-fluoro-[2,3′]bipyridinyl-4-yl)-3H-isoindol-1-ylamine]"
6,42,"COc1c(C)cc(C2(c3cccc(-c4cncnc4)c3)N=C(N)c3c(F)cccc32)cc1C#N (stereo not shown) [Example 54, 5-(3-Amino-4-fluoro-1-(3-(pyrimidin-5-yl)phenyl)-1H-isoindol-1-yl)-2-methoxy-3-methylbenzonitrile]"
7,150,"NC1=NC(c2cccc(-c3cncnc3)c2)(c2ccnc(C(F)(F)F)c2)c2cc(Cl)cc(F)c21 (stereo not shown) [Example 55, 6-Chloro-4-fluoro-1-(3-(pyrimidin-5-yl)phenyl)-1-(2-(trifluoromethyl)pyridin-4-yl)-1H-isoindol-3-amine]"
8,230,"Cc1cc(C2(c3cccc(-c4cncnc4)c3)N=C(N)c3c(F)cc(Cl)cc32)ccn1 (stereo not shown) [Example 56, 6-Chloro-4-fluoro-1-(2-methylpyridin-4-yl)-1-(3-(pyrimidin-5-yl)phenyl)-1H-isoindol-3-amine]"
